Patent publication US20230023847A1, “COMPOSITION FOR PREVENTING HAIR LOSS AND PROMOTING HAIR REGROWTH” (LG HOUSEHOLD & HEALTH CARE LTD., priority 2020, published 2023)

Experiments:
[1] = test system: 22Rv1 human prostate cancer cells; assay: CCK-8 assay conducted in parallel to investigate cytotoxicity (cell viability)
Description: (§1) The stable cell line was maintained by subculturing using RPMI1640 and 10% fetal bovine serum (GIBCO BRL, Gaithersburg, Md., USA). For transcriptional activation assay, the cells were seeded in a 96-well plate, with 25,000 cells per well, while replacing the medium with phenol red-free RPMI1640 containing 5% charcoal-stripped fetal bovine serum. […] The cell culture was treated and incubated with CCK-8 at 1:10 for 2 hours. 2 hour later, the absorbance of each well was measured at 450 nm. All the experiments were 3 times and the absorbance was averaged. […] The experimental result is shown in Table 1, Table 2 and FIGS. 1-4.

androgen receptor = assay: Androgenic activity: transcriptional activation (MMTV-Luc luciferase reporter) assay with 1 nM DHT; assay type: cell-based, human; settings: 24 hours
Description: as §1

Dkk-1 = assay: Inhibition of expression of hair follicle catagen factor (Dkk-1 ELISA); assay type: cell-based; settings: 24 hours, human dermal papilla cells (hDPCs)
Description: The inhibition of the expression of the hair follicle catagen marker Dkk-1 was investigated using human dermal papilla cells (hDPCs). The human dermal papilla cells were purchased from PromoCell. The hDPCs were subcultured in an hDPC culture medium (follicle dermal papilla cell growth medium; PromoCell, Heidelberg, Germany) containing a medium additive (Supplement Mix; PromoCell, Heidelberg, Germany), 100 units/mL penicillin and […] streptomycin under the condition of 37° C. and 5% CO2. One million subcultured hDPCs were seeded onto a 100-mm cell culture dish and then cultured in an incubator at 37° C. 48 hours later, after treating with each of gypsogenin 3-O-β-D-glucuronopyranoside, deapioplatycodin D, congmunoside X and chikusetsusaponin IVa at 2 ppm or 20 ppm for 24 hours, the cell culture was subjected to Dkk-1 ELISA assay (R&D Systems, USA). The protein amount of each test group was identified by BCA assay and corrected with the result of Dkk-1 ELISA.

Compound | Cell viability (% of 1 nM DHT) ([1]; DHT 1 nM alone, CCK-8, 22Rv1 stable cell line) | Androgenic activity (% of 1 nM DHT) (androgen receptor; DHT 1 nM alone, 22Rv1 MMTV-Luc stable cell line) | Cell viability (% of 1 nM DHT) ([1]; 0.2 ppm together with 1 nM DHT, CCK-8) | Cell viability (% of 1 nM DHT) ([1]; 2 ppm together with 1 nM DHT, CCK-8) | Cell viability (% of 1 nM DHT) ([1]; 20 ppm together with 1 nM DHT, CCK-8) | Relative expression level of Dkk-1 (% of untreated group) (Dkk-1; 2 ppm) | Relative expression level of Dkk-1 (% of untreated group) (Dkk-1; 20 ppm) | Androgenic activity (% of 1 nM DHT) (androgen receptor; 0.2 ppm together with 1 nM DHT) | Androgenic activity (% of 1 nM DHT) (androgen receptor; 2 ppm together with 1 nM DHT) | Androgenic activity (% of 1 nM DHT) (androgen receptor; 20 ppm together with 1 nM DHT) | Androgenic activity (% of 1 nM DHT) (androgen receptor; 200 ppm together with 1 nM DHT)
C[C@]12CCC(=O)C[C@@H]1CC[C@@H]1[C@@H]2CC[C@]2(C)[C@@H](O)CC[C@@H]12 [DHT, dihydrotestosterone, reference compound] | 100.0 % of 1 nM DHT | 100.0 % of 1 nM DHT |  |  |  |  |  |  |  |  | 
C[C@@H]1O[C@@H](O[C@H]2[C@H](OC(=O)[C@]34CCC(C)(C)C[C@H]3C3=CC[C@@H]5[C@@]6(C)C[C@H](O)[C@H](O[C@@H]7O[C@H](CO)[C@@H](O)[C@H](O)[C@H]7O)C(CO)(CO)[C@@H]6CC[C@@]5(C)[C@]3(C)C[C@H]4O)OC[C@H](O)[C@@H]2O)[C@H](O)[C@H](O)[C@H]1O[C@@H]1OC[C@@H](O)[C@H](O)[C@H]1O [Deapioplatycodin D, deapioplatycodin D] |  |  | 102.2 % of 1 nM DHT | 99.4 % of 1 nM DHT | 81.6 % of 1 nM DHT | 86.4 % of untreated group | 76.7 % of untreated group | 89.1 % of 1 nM DHT | 72.2 % of 1 nM DHT | 34.9 % of 1 nM DHT | 
CC1(C)CC[C@]2(C(=O)O)CC[C@]3(C)C(=CC[C@@H]4[C@@]5(C)CC[C@H](O[C@@H]6O[C@H](C(=O)O)[C@@H](O)[C@H](O)[C@H]6O)[C@@](C)(C=O)[C@@H]5CC[C@]43C)[C@@H]2C1 [Gypsogenin 3-O-β-D-glucuronopyranoside, gypsogenin 3-O-β-D-glucuronopyranoside] |  |  |  |  |  | 96.5 % of untreated group | 77.5 % of untreated group | 98.1 % of 1 nM DHT | 79.1 % of 1 nM DHT | −9.8 % of 1 nM DHT | 
CC1(C)CC[C@]2(C(=O)O[C@@H]3O[C@H](CO)[C@@H](O)[C@H](O)[C@H]3O)CC[C@]3(C)C(=CC[C@@H]4[C@@]5(C)CC[C@H](O[C@@H]6O[C@H](C(=O)O)[C@@H](O)[C@H](O)[C@H]6O)C(C)(C)[C@@H]5CC[C@]43C)[C@@H]2C1 [Chikusetsusaponin IVa, chikusetsusaponin IVa] |  |  |  |  |  | 85.2 % of untreated group | 70.9 % of untreated group | 84.7 % of 1 nM DHT | 79 % of 1 nM DHT | 77.5 % of 1 nM DHT | 
CC1(C)CC[C@]2(C(=O)O[C@@H]3O[C@H](CO)[C@@H](O)[C@H](O)[C@H]3O)CC[C@]3(C)C(=CC[C@@H]4[C@@]5(C)CC[C@H](O[C@@H]6O[C@H](CO)[C@@H](O)[C@H](O[C@@H]7O[C@H](CO)[C@@H](O)[C@H](O[C@@H]8O[C@H](CO)[C@@H](O)[C@H](O)[C@H]8O)[C@H]7O)[C@H]6O[C@@H]6O[C@H](CO)[C@@H](O)[C@H](O)[C@H]6O)C(C)(C)[C@@H]5CC[C@]43C)[C@@H]2C1 [Congmunoside X, congmunoside X] |  |  |  |  |  | 90.8 % of untreated group | 81.2 % of untreated group |  | 104.4 % of 1 nM DHT | 85.9 % of 1 nM DHT | 14.9 % of 1 nM DHT
